We go through six compounds from patent US7015196B1, “Basic monocyclic compounds having Nk2 antagonist action, processes for their preparation, and formulations containing them” (Menarini Ricerche S.p.A., priority 1999, dated 2006).

The target of assay [1] is T1, NK2 receptor of tachykinins (Rattus norvegicus, UniProt P16610).
T1 construct: from tissue; host or cells: rat urinary bladder
T1 sequence (P16610 1-390): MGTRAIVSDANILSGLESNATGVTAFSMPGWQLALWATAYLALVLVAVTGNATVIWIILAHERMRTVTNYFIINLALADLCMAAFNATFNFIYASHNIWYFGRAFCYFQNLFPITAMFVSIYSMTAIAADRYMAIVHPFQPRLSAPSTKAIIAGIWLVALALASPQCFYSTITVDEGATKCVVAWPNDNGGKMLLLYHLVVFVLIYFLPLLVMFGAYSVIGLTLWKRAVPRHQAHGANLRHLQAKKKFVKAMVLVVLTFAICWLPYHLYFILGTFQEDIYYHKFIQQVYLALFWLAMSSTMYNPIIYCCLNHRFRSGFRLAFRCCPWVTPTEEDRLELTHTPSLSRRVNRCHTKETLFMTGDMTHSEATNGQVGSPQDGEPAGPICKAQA
The experiment in a line: in vitro functional test, rat urinary bladder (RUB). The class given is cell-based. As to conditions: for Kb: read-out: pA2 RUB (converted). Here is the method: (§1) The compounds described in the present invention act as antagonists to the NK2 receptor of tachykinins. The biological activity was evaluated in three in vitro functional tests, using rabbit pulmonary artery (RPA), hamster trachea (HT) and rat urinary bladder (RUB), according to the methods described by C. A. Maggi et al., Br. J. Pharmacol., 1990, 100, 588; P. D'Orleans-Juste et al., Eur. J. Pharmacol., 1986, 125, 37; and C. A. Maggi et al., J. Pharmacol. Exp. Ther., 1988, 246, 308. The affinity of the compounds for the human NK2 receptor was evaluated in a binding test using membranes of Chinese hamster ovary (CHO) cells transfected with the NK2 receptor of human ileum and the radioligand [^125I]NKA (Amersham, […] 2000 Ci/mmol) at the concentration of 100 pM in competition studies. The substances under examination were tested in a concentration range between 0.01 nM and […]. At the end of incubation (30 min, 20° C.) the test specimens were filtered, and radioactivity was determined using a gamma-counter.
(§2) The data emerging from the functional studies were expressed as pA2 (O. Arunlakshana and H. O. Shild, Br. J. Pharmacol. Chemother., 1959, 14, 45), and the data emerging from the binding studies were expressed as pKi (log Ki calculated with the LIGAND program; P. J. Munson et al., Anal. Biochem., 1980, 107, 220).

The target of assay [2] is T2, human NK2 receptor (Homo sapiens, UniProt P21452).
T2 construct: expressed in transfected cells; host or cells: CHO cells (membranes)
T2 sequence (P21452 1-398): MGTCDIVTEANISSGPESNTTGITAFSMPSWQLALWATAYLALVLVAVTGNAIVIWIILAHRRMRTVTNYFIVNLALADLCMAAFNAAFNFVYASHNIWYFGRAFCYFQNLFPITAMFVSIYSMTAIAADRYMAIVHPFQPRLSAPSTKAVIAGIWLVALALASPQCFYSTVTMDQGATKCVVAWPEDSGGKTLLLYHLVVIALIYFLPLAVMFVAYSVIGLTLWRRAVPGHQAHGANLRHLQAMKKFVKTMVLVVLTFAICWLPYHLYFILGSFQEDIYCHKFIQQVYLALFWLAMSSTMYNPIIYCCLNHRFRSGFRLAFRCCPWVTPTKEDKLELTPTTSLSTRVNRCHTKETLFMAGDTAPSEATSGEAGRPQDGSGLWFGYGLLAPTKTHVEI
The experiment in a line: binding test, [125I]NKA competition on membranes of CHO cells transfected with the NK2 receptor of human ileum. As to conditions: CHO cell membranes, [125I]NKA 100 pM, 30 min, 20° C. The protocol: as §1, §2

The target in assay [3] is T3, NK2 receptor of tachykinins (Oryctolagus cuniculus, UniProt P79218).
T3 construct: from tissue; host or cells: rabbit pulmonary artery
T3 sequence (P79218 1-384): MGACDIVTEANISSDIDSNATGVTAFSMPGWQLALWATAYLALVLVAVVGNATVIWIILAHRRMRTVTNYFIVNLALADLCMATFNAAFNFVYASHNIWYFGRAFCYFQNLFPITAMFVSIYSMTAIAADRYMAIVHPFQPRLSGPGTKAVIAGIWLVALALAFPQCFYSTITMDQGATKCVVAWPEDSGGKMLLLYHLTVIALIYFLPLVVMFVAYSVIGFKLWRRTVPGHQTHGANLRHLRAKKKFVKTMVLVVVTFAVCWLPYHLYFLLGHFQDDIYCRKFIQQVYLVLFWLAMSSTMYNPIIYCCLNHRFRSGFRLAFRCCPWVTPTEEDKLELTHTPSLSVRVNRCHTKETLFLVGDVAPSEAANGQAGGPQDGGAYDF
The experiment in a line: in vitro functional test, rabbit pulmonary artery (RPA). Conditions: read-out: pA2 RPA (converted). The assay is classed as cell-based. The protocol:
as §1, §2

Assay [4] has as its target T4, NK2 receptor of tachykinins (Mesocricetus auratus, UniProt P51144).
T4 construct: from tissue; host or cells: hamster trachea
T4 sequence (P51144 1-384): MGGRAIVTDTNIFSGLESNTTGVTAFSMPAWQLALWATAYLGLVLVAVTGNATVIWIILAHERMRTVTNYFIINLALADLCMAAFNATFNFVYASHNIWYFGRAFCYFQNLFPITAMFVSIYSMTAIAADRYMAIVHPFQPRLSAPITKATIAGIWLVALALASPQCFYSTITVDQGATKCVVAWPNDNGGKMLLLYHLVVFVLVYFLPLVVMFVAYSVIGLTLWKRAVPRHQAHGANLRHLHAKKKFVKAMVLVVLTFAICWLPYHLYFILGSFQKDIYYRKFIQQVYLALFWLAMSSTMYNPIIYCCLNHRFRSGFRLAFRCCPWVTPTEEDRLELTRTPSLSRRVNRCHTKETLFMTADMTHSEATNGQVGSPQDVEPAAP
Nature of the assay: in vitro functional test, hamster trachea (HT). The class given is cell-based. Conditions: read-out: pA2 HT (converted). The protocol:
as §1, §2

As usually defined, the Ki is the dissociation constant of the complex between target and ligand, obtained from inhibition or displacement. Higher therefore signals lower affinity. On to `O=C1CC(C(=O)N2CCC(N3CCCCC3)CC2)C(=O)NCC(Cc2ccccc2)NC(=O)C(Cc2ccccc2)NC(=O)C(Cc2c[nH]c3ccccc23)N1` (single isomer, unassigned) [Example 7, cyclo{-Suc[1-(R or S)-(1,4′)-bipiperidinyl-1′-carbonyl]-Trp-Phe[(R)—NH—CH(CH2—C6H5)—CH2NH]-}], for which, in assay [1], the Kb was 0.794 nM. In assay [2], this compound gave a Ki of 0.0501 nM.
`O=C1CC(C(=O)N2CCC(N3CCCCC3)CC2)C(=O)NCC(Cc2ccccc2)NC(=O)C(Cc2ccccc2)NC(=O)C(Cc2c[nH]c3ccccc23)N1` (single isomer, unassigned) [Example 8, cyclo{-Suc[1-(S or R)-(1,4′)-bipiperidinyl-1′-carbonyl]-Trp-Phe[(R)—NH—CH(CH2—C6H5)—CH2NH]-}]: the Ki in assay [2] was 0.316 nM.
As usually defined, the pKi is the negative decadic logarithm of the Ki, by convention in mol/L. A low value points to a large Ki. As for `O=C1C[C@@H](NC(=O)CN2CCC(N3CCCCC3)CC2)C(=O)NC[C@@H](Cc2ccccc2)NC(=O)[C@H](Cc2ccccc2)NC(=O)[C@H](Cc2c[nH]c3ccccc23)N1` [Example 1, cyclo{-Suc[1-(R)-2(1,4′)-bipiperidinyl-1′-yl-acetyl amino]-Trp-Phe-[(R)—NH—CH(CH2—C6H5)—CH2NH]-}], the Kb is 0.631 nM in assay [1], 2 nM in assay [3] and 1.58 nM in assay [4]. In addition, in assay [2], the pKi stood at 9.4.
As for `O=C1C[C@@H](NC(=O)CN2CCC(N3CCOCC3)CC2)C(=O)NC[C@@H](Cc2ccccc2)NC(=O)[C@H](Cc2ccccc2)NC(=O)[C@H](Cc2c[nH]c3ccccc23)N1` [Example 2, cyclo{-Suc[1-(R)-2(4-morpholin-4-yl-piperidin-1-yl)-acetyl amino]-Trp-Phe-[(R)—NH—CH(CH2—C6H5)—CH2NH]-}], in assay [1], the Kb is 0.158 nM. In assay [2], this compound had an inhibition constant (Ki) of 0.2 nM.
For `O=C1C[C@@H](NC(=O)CN2CCC(N3CCCCC3)CC2)C(=O)NC(Cc2c[nH]c3ccccc23)C(=O)NC(Cc2ccc(F)cc2)C(=O)N[C@H](Cc2ccccc2)CN1` (stereo partly drawn) [Example 3, cyclo{-Suc[1-(R)-2(1,4′)-bipiperidinyl-1′-yl-acetyl amino]-Trp-Phe-(4-F)-[(R)—NH—CH(CH2—C6H5)—CH2NH]-}], in assay [1], the “pA2 RUB” value amounted to 9.3. The same compound returned a pKi in assay [2] of 9.6.
The matching figures for `O=C1C[C@@H](NC(=O)CN2CCC(N3CCOCC3)CC2)C(=O)NC(Cc2c[nH]c3ccc(F)cc23)C(=O)NC(Cc2ccccc2)C(=O)N[C@H](Cc2ccccc2)CN1` (stereo partly drawn) [Example 4, cyclo{-Suc[1-(R)-2(4-morpholinyl-4-piperidinyl-1-yl-acetyl)amino]-Trp-(5-F)-Phe-[(R)-N H—CH(CH2—C6H5)—CH2NH]-}]: 9.7 and 10.1.
